One data set relates to MS751 cells. The data set can be described thus: MTT cell proliferation assay, MS751. The conditions noted are these: Homo sapiens, MS751, MS751 cells, read-out: MTT Assay IC50, MS751. Format: cell-based, human. The method in brief: (§1)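 Seeding 5,000-10,000 cells/well, overnight attachment; 8 concs, 1 nM–30 μM. MTT ~4 h, formazan solubilized, OD 490 nm. % inhibition vs negative control, mostly duplicate, mean±SE.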
A general note: Formazan colour is commonly taken as a measure of viable cells.

The next data set deals with Z138 cells. The experiment in a line: MTT cell proliferation assay, Z138. Format: cell-based. The conditions noted are these: Homo sapiens, Z-138, Z138 cells, read-out: MTT Assay IC50, Z138. The essentials:
as §1

The subject of another data set is 3T3 cells. The data set can be described thus: MTT cell proliferation assay, 3T3. The data set is classed as cell-based, mouse. The conditions noted are these: Mus musculus, NIH3T3, 3T3 cells, read-out: MTT Assay IC50, 3T3. The method in brief: as §1
Data set [1] relates to Z-138 mantle cell lymphoma cancer xenograft. The data set can be described thus: Z-138 mouse xenograft model. Format: in vivo. The conditions noted are these: QDx5/week for 4 weeks, SCID mice with Z-138 tumors; for tumor growth (mean tumor volume): versus cyclophosphamide 80 mg/kg Days 1-3. The procedure:
The oncological impact of selected substituted 2,3-dihydrobenzofuranyl compounds was tested using a Z-138 mantle cell lymphoma cancer xenograft model in SCID mice. SCID Mice were inoculated s.c. in both flanks with 5×10^6 Z-138 cells. When the tumors reached a mean size of between 100 and 200 mm^3, mice were randomly and prospectively divided. Tumor-bearing mice were treated with vehicle, cyclophosphamide (positive control) or Compound 123 on M-F (QDx5/week) for 4 weeks. Compound 123 was administered orally (PO) at initial doses of 30 and 100 mg/kg five times a week. Cyclophosphamide was given as a positive control at 80 mg/kg on Days 1-3. Animals' weights and conditions were recorded daily, and tumors were measured on Mondays-Wednesdays-Fridays.

Another data set has as its system Z-138 cells. The data set can be described thus: Cell cycle arrest (BrdU / 7-AAD flow cytometry). The conditions noted are these: 1 μM for 1, 2 and 3 days. The data set is classed as cell-based. As for the experimental part: Z-138 cells (mantle cell lymphoma) were plated at a density of 1×10^6 cells/well and treated with no drug (DMSO control) or with 1 μM Compound 123 for 1, 2, and 3 days in culture. For each time point, cells were treated with 10 μM BrdU for 2 hours, then collected by centrifugation. Cells were subsequently washed, fixed, and then stained for BrdU and total DNA (7-AAD). BrdU incorporation and cell cycle analysis were analyzed by flow cytometry at the Dana Farber Cancer Institute on a BD Fortessa Analyzer. Data was then analyzed using FCS Express 4 software.
FIGS. 1A, 1B, 1C and 1D are single-cell scatter plots and show BrdU versus 7-AAD for Z138 cells treated with no drug (FIG. 1A) or treated with 1 μM Compound 123 for 1 day (FIG. 1B), 2 days (FIG. 1C), or 3 days (FIG. 1D). Graphs showing cell count versus 7-AAD intensities are depicted below their corresponding scatter plots.
(In flow cytometry, cells or beads pass a laser one at a time.)

In data set [2] the test system is PAK4 interactors and downstream proteins. The data set can be described thus: Immunoblots of PAK4 interactors and downstream proteins in U2OS cells. Format: cell-based, human. The conditions noted are these: 0.5 μM or 5 μM, 72 hours. As for the experimental part: Immunoblots were used to measure the effects of exemplary compounds on protein steady-state levels and phophorylation of PAK4 interactor and downstream proteins. Specifically, U2OS (osteosarcoma) cells were split and plated on day 1. After overnight attachment to the tissue culture plate, cells were treated with either DMSO (0), 37 nM, 111 nM, 333 nM, 1 μM, or 3 μM Compound 246 for 72 hours. Cells were collected, washed and lysed in RIPA buffer. After obtaining the protein concentration by BCA assay, lysates were boiled in loading buffer and run on SDS-PAGE. The gels were transferred to nitrocellulose membranes and blotted with antibodies raised against phosphor-PAK4, PAK4, phophos-beta-catenin, beta-catenin, GEF-H1, phospho-Akt, Akt, phospho-ERK1/2, ERK1/2, phospho-cofilin, cofilin, phospho-histone H3, histone H3, cyclin D1, Mcl-1, Bcl-2, p21, survivin, caspase 8, caspase 3, PARP, and beta-actin (loading control).
In another experiment, U2OS (osteosarcoma) cells were split and plated on day 1. After overnight attachment to the tissue culture plate, cells were treated with DMSO (Ct), 0.5 μM, or 5 μM of Compound 124, 369, 226, 246, or 907 for 72 hours. Cells were collected, washed and lysed in RIPA buffer. After obtaining the protein concentration by BCA assay, lysates were boiled in loading buffer and run on SDS-PAGE. The gels were transferred to nitrocellulose membranes and blotted with antibodies raised against phophos-beta-catenin, cyclin D1, PAK4, phospho-cofilin, and beta-actin (loading control).

Setting [3] is: eight concentrations 1 nM to 30 μM, incubation approximately 64-72 hours.
The mark [4] stands for this setting: approximately 64-72 hours incubation.

Experimental findings from patent US9938258B2 (Karyopharm Therapeutics Inc., priority 2012, dated 2018) are described below.

The structures appear in SMILES notation. Where a name gives a salt, the structure may show the parent alone. Read-outs that look alike come from different tables or passages of the source.

A word on the IC50: it is the point on the concentration scale where inhibition reaches its midpoint. In the case of `CC(=O)c1ccc(-c2cc(Cl)c3c(c2)CC(CNC(=O)/C=C/c2cccnc2)O3)s1` (single isomer, unassigned) [Compound 123, (E)-N-((5-(5-acetylthiophen-2-yl)-7-chloro-2,3-dihydrobenzofuran-2-yl)methyl)-3-(pyridin-3-yl)acrylamide], in the data set with MS751 cells (setting [3]), the IC50 is below 100 nM. Also, the 50% inhibitory concentration (IC50) in the data set with Z138 cells (setting [3]) was below 100 nM. The IC50 in the data set with 3T3 cells (setting [3]) lay in the range of 100 to 5000 nM. For the same molecule, the “tumor growth (mean tumor volume)” value in data set [1] (30 mg/kg PO) was “inhibited tumor growth with an efficacy better than that of cyclophosphamide”. For the same molecule, the “tumor growth (mean tumor volume)” value in data set [1] (100 mg/kg PO) was “inhibited tumor growth with an efficacy similar to cyclophosphamide”. The “tolerability (mean percent weight change)” value in data set [1] (30 and 100 mg/kg PO) was “tolerated at both doses”. In addition, in the data set on Z-138 cells, the G1 entry is recorded as “no change”, the G2/M entry is “increased”, the S phase result was “significant decrease” and the sub-G1 fraction result is listed as “small increase”.
With `CC(=O)c1ccc(-c2cc(Cl)c3c(c2)CC(CNC(=O)CCc2cccnc2)O3)s1` (centres unmarked) [Compound 369, N-((5-(5-Acetylthiophen-2-yl)-7-chloro-2,3-dihydrobenzofuran-2-yl)methyl)-3-(pyridin-3-yl)propanamide], the IC50 with MS751 cells (setting [4]) was in the range of 100 to 5000 nM; in the data set with Z138 cells (setting [4]) it was 100 to 5000 nM; in the data set with 3T3 cells (setting [4]), 5000 to 30000 nM. In data set [2], the PAK4 total protein entry is given as “decrease”. Further, the “phosphorylation of PAK4 signaling proteins beta-catenin and cofilin” value in data set [2] is “decreases in phosphorylation”.
For the molecule `Nc1ccc(/C=C/C(=O)NCC2Cc3cc(-c4ccc(C(=O)CN5CCOCC5)cc4)cc(Cl)c3O2)cn1` (centres unmarked) [Compound 906, (E)-3-(6-Aminopyridin-3-yl)-N-((7-chloro-5-(4-(2-morpholinoacetyl)phenyl)-2,3-dihydrobenzofuran-2-yl)methyl)acrylamide], the IC50 in the data set with MS751 cells (setting [4]) was below 100 nM; in the data set on Z138 cells (setting [4]), below 100 nM; in the data set with 3T3 cells (setting [4]), 100 to 5000 nM.
In the case of `Nc1ccc(CNC(=O)/C=C/C2Cc3cc(-c4ccc(C(=O)N5CCOCC5)cc4)cc(Cl)c3O2)cn1` (centres unmarked) [Compound 907, (E)-N-((6-aminopyridin-3-yl)methyl)-3-(7-chloro-5-(4-(morpholine-4-carbonyl)phenyl)-2,3-dihydrobenzofuran-2-yl)acrylamide hydrochloride], the IC50 in the data set with MS751 cells (setting [4]) was below 100 nM; with Z138 cells (setting [4]) it was below 100 nM; in the data set with 3T3 cells (setting [4]), 5000 to 30000 nM. Moreover, the PAK4 total protein result in data set [2] is reported as “decrease”. Also, the “phosphorylation of PAK4 signaling proteins beta-catenin and cofilin” value in data set [2] was “decreases in phosphorylation”.
Take `Nc1ccc(/C=C/C(=O)NCC2Cc3c(-c4cc(F)c(C(=O)N5CCOCC5)c(F)c4)ccc(Cl)c3O2)cn1` (centres unmarked) [Compound 908, (E)-3-(6-Aminopyridin-3-yl)-N-((7-chloro-4-(3,5-difluoro-4-(morpholine-4-carbonyl)phenyl)-2,3-dihydrobenzofuran-2-yl)methyl)acrylamide]: the IC50 was below 100 nM in the data set with MS751 cells (setting [4]), below 100 nM in the data set on Z138 cells (setting [4]) and 100 to 5000 nM in the data set with 3T3 cells (setting [4]).
Turning to `Nc1ccc(/C=C/C(=O)NCC2Cc3cc(-c4ccc(C(=O)C(=O)N5CCOCC5)cc4)cc(Cl)c3O2)cn1` (centres unmarked) [Compound 909, (E)-3-(6-aminopyridin-3-yl)-N-((7-chloro-5-(4-(2-morpholino-2-oxoacetyl)phenyl)-2,3-dihydrobenzofuran-2-yl)methyl)acrylamide], the results for the IC50 with MS751 cells (setting [4]), in the data set with Z138 cells (setting [4]) and with 3T3 cells (setting [4]) were below 100 nM, below 100 nM and 100 to 5000 nM, respectively.
As for `Nc1ccc(/C=C/C(=O)NCC2Cc3c(-c4ccc(C(=O)N5CCOCC5)nc4)ccc(Cl)c3O2)cn1` (centres unmarked) [Compound 910, (E)-3-(6-aminopyridin-3-yl)-N-((7-chloro-4-(6-(morpholine-4-carbonyl)pyridin-3-yl)-2,3-dihydrobenzofuran-2-yl)methyl)acrylamide], the concentration for half-maximal inhibition (IC50) was 100 to 5000 nM with MS751 cells (setting [4]), below 100 nM with Z138 cells (setting [4]) and 5000 to 30000 nM in the data set with 3T3 cells (setting [4]).
As for `Nc1ccc(/C=C/C(=O)NCC2Cc3c(-c4ccc(C(=O)N5CCOCC5)cc4F)ccc(Cl)c3O2)cn1` (centres unmarked) [Compound 911, (E)-3-(6-aminopyridin-3-yl)-N-((7-chloro-4-(2-fluoro-4-(morpholine-4-carbonyl)phenyl)-2,3-dihydrobenzofuran-2-yl)methyl)acrylamide], the concentration for half-maximal inhibition (IC50) is below 100 nM in the data set with MS751 cells (setting [4]), below 100 nM with Z138 cells (setting [4]) and 100 to 5000 nM in the data set with 3T3 cells (setting [4]).
As for `Nc1ccc(/C=C/C(=O)NCC2Cc3c(-c4ccc(C(=O)N5CCOCC5)cn4)ccc(Cl)c3O2)cn1` (centres unmarked) [Compound 912, (E)-3-(6-aminopyridin-3-yl)-N-((7-chloro-4-(5-(morpholine-4-carbonyl)pyridin-2-yl)-2,3-dihydrobenzofuran-2-yl)methyl)acrylamide], the IC50 in the data set on MS751 cells (setting [4]) was 100 to 5000 nM; in the data set on Z138 cells (setting [4]), below 100 nM; with 3T3 cells (setting [4]) it was 100 to 5000 nM.
Regarding `Nc1ccc(/C=C/C(=O)NCC2Cc3c(-c4cncc(C(=O)N5CCOCC5)c4)ccc(Cl)c3O2)cn1` (centres unmarked) [Compound 913, (E)-3-(6-aminopyridin-3-yl)-N-((7-chloro-4-(5-(morpholine-4-carbonyl)pyridin-3-yl)-2,3-dihydrobenzofuran-2-yl)methyl)acrylamide], the IC50 in the data set on MS751 cells (setting [4]) was in the range of 100 to 5000 nM; with Z138 cells (setting [4]) it was 100 to 5000 nM; in the data set with 3T3 cells (setting [4]) it was 5000 to 30000 nM.
With `Nc1ccc(/C=C/C(=O)NCC2Cc3cc(-c4ccc(S(=O)(=O)N5CCOCC5)cc4)cc(Cl)c3O2)cn1` (centres unmarked) [Compound 914, (E)-3-(6-aminopyridin-3-yl)-N-((7-chloro-5-(4-(morpholinosulfonyl)phenyl)-2,3-dihydrobenzofuran-2-yl)methyl)acrylamide], the IC50 in the data set on MS751 cells (setting [4]) was below 100 nM; in the data set with Z138 cells (setting [4]), below 100 nM; in the data set with 3T3 cells (setting [4]), 100 to 5000 nM.
Consider `Nc1ccc(/C=C/C(=O)NCC2Cc3c(-c4cccc(C(=O)N5CCOCC5)c4)ccc(Cl)c3O2)cn1` (centres unmarked) [Compound 915, (E)-3-(6-aminopyridin-3-yl)-N-((7-chloro-4-(3-(morpholine-4-carbonyl)phenyl)-2,3-dihydrobenzofuran-2-yl)methyl)acrylamide], for which the 50% inhibitory concentration (IC50) is below 100 nM with MS751 cells (setting [4]), below 100 nM with Z138 cells (setting [4]) and 100 to 5000 nM with 3T3 cells (setting [4]).
`Nc1ccc(CCC(=O)NCC2Cc3cc(-c4ccc(C(=O)N5CCNCC5)cc4)cc(Cl)c3O2)cn1` (centres unmarked) [Compound 920, 3-(6-aminopyridin-3-yl)-N-((7-chloro-5-(4-(piperazine-1-carbonyl)phenyl)-2,3-dihydrobenzofuran-2-yl)methyl)propanamide]: the half-maximal inhibitory concentration (IC50) in the data set with MS751 cells (setting [4]), in the data set with Z138 cells (setting [4]) and in the data set on 3T3 cells (setting [4]) was above 30000 nM each time.
As to `Nc1ccc(/C=C/C(=O)NCC2Cc3cc(-c4ccc(CC(=O)N5CCOCC5)cc4)cc(Cl)c3O2)cn1` (centres unmarked) [Compound 921, (E)-3-(6-aminopyridin-3-yl)-N-((7-chloro-5-(4-(2-morpholino-2-oxoethyl)phenyl)-2,3-dihydrobenzofuran-2-yl)methyl)acrylamide], the IC50 with MS751 cells (setting [4]) is below 100 nM; in the data set on Z138 cells (setting [4]), below 100 nM; with 3T3 cells (setting [4]), 100 to 5000 nM.
